Experimental data as given in publication PMC11585590 (Nature Communications, 2024).
Entries after “also recorded” stand apart in the source; their conditions may differ. Peptide text beside a SMILES is read from it. * marks the point of attachment. Cbz = O=C(OCc1ccccc1)*

Columns and labels:
[1] = target: T1, HiBiT-tagged WDR5 (Homo sapiens, UniProt P61964+Q9Y4B6); assay: Exogenous HiBiT WDR5 degradation assay, 24 h; format: cell-based; settings: for Dmax of exogenous HiBiT-WDR5 degradation: MV4-11 cells expressing HiBiT-tagged WDR5, 24 h; for Dmax: MV4-11, read-out: Dmax of exogenous HiBiT-WDR5 degradation, MV4-11 cells expressing HiBiT-tagged WDR5, 24 h
[2] = tested on: MV4-11 cells expressing HiBiT WDR5; assay: ATPlite viability of MV4-11 cells expressing HiBiT WDR5, 24 h; format: cell-based; settings: 2 nM to 10 μM
[3] = target: WDR5 (Homo sapiens, UniProt P61964); assay: Western blot of WDR5 in MV4-11 cells, 1.5 μM PROTAC, 24 h; format: cell-based
[4] = tested on: WDR5; settings: highest concentration of 7.5 µM, no hook effect; cited from earlier work
[5] = target: DCAF1 (Homo sapiens, UniProt Q9Y4B6); assay: SPR ternary complex format: PROTAC alone on immobilized DCAF1; format: binding; settings: for Rmax: PROTAC alone, absence of WDR5; for koff: read-out: koff (1/s); for kon: read-out: kon (1/Ms)
[6] = target: DCAF1-PROTAC-WDR5 ternary complex (Homo sapiens, UniProt P61964+Q9Y4B6); assay: SPR ternary complex formation: PROTAC with 0.25 µM WDR5 on immobilized DCAF1; format: binding; settings: WDR5 0.25 µM
[7] = target: endogenous WDR5 (Homo sapiens, UniProt P61964); assay: Endogenous WDR5 degradation assay using ProteinSimple's Jess, 24 h; format: cell-based; settings: for Dmax: MV4-11, read-out: Dmax of endogenous WDR5 degradation, parental MV4-11 cells, 24 h; for DC50: read-out: EC50 of endogenous WDR5 degradation
[8] = target: T1, HiBiT-tagged WDR5; assay: Proteasome dependence: HiBiT-WDR5 level after 5 h with PROTAC 4 and/or MG132; format: cell-based; settings: co-treatment with PROTAC 4 at 1.5 µM

T1 sequence (Q9Y4B6 whole entry, one chain of several): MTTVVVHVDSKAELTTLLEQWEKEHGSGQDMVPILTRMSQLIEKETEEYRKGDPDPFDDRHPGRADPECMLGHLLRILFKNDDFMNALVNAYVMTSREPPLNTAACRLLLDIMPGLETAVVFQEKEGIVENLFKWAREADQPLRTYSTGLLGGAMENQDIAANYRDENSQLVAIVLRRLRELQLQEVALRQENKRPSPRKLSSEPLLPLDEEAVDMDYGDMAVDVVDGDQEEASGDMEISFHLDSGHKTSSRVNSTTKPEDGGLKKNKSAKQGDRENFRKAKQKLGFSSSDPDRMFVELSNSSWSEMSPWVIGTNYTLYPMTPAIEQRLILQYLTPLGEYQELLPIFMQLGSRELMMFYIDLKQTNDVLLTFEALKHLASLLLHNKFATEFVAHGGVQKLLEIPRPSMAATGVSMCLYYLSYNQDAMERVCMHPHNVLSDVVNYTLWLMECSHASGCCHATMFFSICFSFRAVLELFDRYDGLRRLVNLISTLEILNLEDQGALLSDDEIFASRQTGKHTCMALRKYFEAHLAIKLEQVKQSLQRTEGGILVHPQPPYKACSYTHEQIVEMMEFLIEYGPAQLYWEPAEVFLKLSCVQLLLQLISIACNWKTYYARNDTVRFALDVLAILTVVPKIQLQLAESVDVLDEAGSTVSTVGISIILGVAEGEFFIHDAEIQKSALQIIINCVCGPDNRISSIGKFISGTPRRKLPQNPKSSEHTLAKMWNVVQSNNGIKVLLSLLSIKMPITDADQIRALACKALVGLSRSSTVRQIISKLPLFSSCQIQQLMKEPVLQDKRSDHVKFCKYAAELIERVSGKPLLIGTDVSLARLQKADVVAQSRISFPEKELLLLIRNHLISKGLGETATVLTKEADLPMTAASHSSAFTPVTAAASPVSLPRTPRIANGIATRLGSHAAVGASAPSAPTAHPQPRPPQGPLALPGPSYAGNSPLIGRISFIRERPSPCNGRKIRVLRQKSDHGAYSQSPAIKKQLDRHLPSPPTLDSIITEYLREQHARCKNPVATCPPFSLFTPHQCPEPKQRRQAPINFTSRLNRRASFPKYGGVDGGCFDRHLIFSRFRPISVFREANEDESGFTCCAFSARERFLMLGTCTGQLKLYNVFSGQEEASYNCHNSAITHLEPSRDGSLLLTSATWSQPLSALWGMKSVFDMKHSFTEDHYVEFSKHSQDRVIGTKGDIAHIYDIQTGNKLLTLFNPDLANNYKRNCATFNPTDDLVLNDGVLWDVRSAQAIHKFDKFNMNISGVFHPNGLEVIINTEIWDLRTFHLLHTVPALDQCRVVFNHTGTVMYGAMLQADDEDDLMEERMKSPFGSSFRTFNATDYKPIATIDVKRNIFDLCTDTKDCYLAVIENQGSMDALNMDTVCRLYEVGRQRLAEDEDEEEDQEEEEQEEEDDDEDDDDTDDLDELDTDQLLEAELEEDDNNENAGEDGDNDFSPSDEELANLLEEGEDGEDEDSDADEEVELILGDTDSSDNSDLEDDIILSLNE
DCAF1-PROTAC-WDR5 ternary complex, sequence (Q9Y4B6 1077-1390, one chain of several): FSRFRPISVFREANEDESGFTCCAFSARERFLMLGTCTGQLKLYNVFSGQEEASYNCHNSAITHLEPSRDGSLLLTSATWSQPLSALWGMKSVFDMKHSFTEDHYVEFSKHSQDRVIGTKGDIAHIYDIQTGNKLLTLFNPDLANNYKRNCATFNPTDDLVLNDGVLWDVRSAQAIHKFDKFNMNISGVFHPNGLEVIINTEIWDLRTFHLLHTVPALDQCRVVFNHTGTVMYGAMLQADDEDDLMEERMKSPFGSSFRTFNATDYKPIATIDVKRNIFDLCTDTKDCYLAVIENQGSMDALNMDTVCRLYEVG
DCAF1, sequence (Q9Y4B6 1077-1390): as the sequence (Q9Y4B6 1077-1390, one chain of several) above

Row | Structure (SMILES) | WDR5 protein level by Western blot [3] | Kd [5] [nM] | Rmax [5] | koff [5] [s⁻¹] | kon [5] [M⁻¹ s⁻¹] | Rmax [6] | Dmax [1] [%] | Dmax [7] [%] | DC50 ([7]; parental MV4-11 cells, 24 h) [nM] | degradation of exogenous WDR5 in cells ([1]; MV4-11 cells) | degradation of endogenous WDR5 in cells ([7]; MV4-11 cells) | HiBiT-WDR5 level reached on rescue by MG132 [8] | Dmax of endogenous WDR5 degradation ([7]; parental MV4-11 cells, 24 h) [%] | Dmax of exogenous HiBiT-WDR5 degradation [1] [%] | toxicity / viability after 24 h (ATPlite) [2] | Dmax of WDR5 degradation [4]
1 | Cc1ncsc1-c1ccc([C@H](C)NC(=O)[C@@H]2C[C@@H](O)CN2C(=O)[C@@H](NC(=O)CNC(=O)c2ccc(F)c(-c3ccc(N4C[C@@H](C)N(C)[C@@H](C)C4)c(NC(=O)c4c[nH]c(=O)cc4C(F)(F)F)c3)c2)C(C)(C)C)cc1 [MS67, reference compound] | significantly decreased; also recorded: comparable levels of WDR5 degradation |  |  |  |  |  |  |  |  |  |  |  |  | 78.7 | displayed some toxicity | ~ 70%
2 | CC(C)C[C@@H](C=O)NC(=O)[C@H](CC(C)C)NC(=O)[C@H](CC(C)C)NC(=O)OCc1ccccc1 [MG132] (Cbz-Leu-Leu-Leu-aldehyde) |  |  |  |  |  |  |  |  |  |  |  | approximately 100% |  |  |  | 
3 | C[C@@H]1CN(c2ccc(-c3cc(C(=O)NCCOCCOCCOCCOCCOCCOCCNC(=O)/C=C/c4[nH]cc(C(=O)N[C@@H](CC(N)=O)c5ccc(F)c(Cl)c5)c4-c4ccc(Cl)cc4F)ccc3F)cc2NC(=O)c2ccc(F)cc2C(F)(F)F)C[C@H](C)N1C [PROTAC 3] | moderate WDR5 degradation | 48 ± 2.8 | 42 | 0.003 | 69600 | 685 | 41.9 ± 4.5 | 33.4 ± 6.8 | 93 ± 37 |  |  |  |  |  |  | 
4 | C[C@@H]1CN(c2ccc(-c3cc(C(=O)NCCOCCOCCOCCOCCOCCOCCOCCOCCOCCNC(=O)/C=C/c4[nH]cc(C(=O)N[C@@H](CC(N)=O)c5ccc(F)c(Cl)c5)c4-c4ccc(Cl)cc4F)ccc3F)cc2NC(=O)c2c[nH]c(=O)cc2C(F)(F)F)C[C@H](C)N1C [PROTAC 4] | significantly decreased; also recorded: comparable levels of WDR5 degradation | 59 ± 0.9 | 102 | 0.014 | 239000 | 818 | 73.8 ± 2.9 | 49.1 | 40 ± 24 |  |  |  | 49 ± 1.9 |  | did not show a significant toxicity | 

Now from value to compound, other results behind:

Row | WDR5 protein level by Western blot [3] | Kd [5] [nM] | Rmax [5] | koff [5] [s⁻¹] | kon [5] [M⁻¹ s⁻¹] | Rmax [6] | Dmax [1] [%] | Dmax [7] [%] | DC50 ([7]; parental MV4-11 cells, 24 h) [nM] | degradation of exogenous WDR5 in cells ([1]; MV4-11 cells) | degradation of endogenous WDR5 in cells ([7]; MV4-11 cells) | HiBiT-WDR5 level reached on rescue by MG132 [8] | Dmax of endogenous WDR5 degradation ([7]; parental MV4-11 cells, 24 h) [%] | Structure (SMILES) | Dmax of exogenous HiBiT-WDR5 degradation [1] [%] | toxicity / viability after 24 h (ATPlite) [2] | Dmax of WDR5 degradation [4]
5 | moderate WDR5 degradation | 46 ± 0.4 | 101 | 0.011 | 249000 | 390 | 31.6 ± 5.5 | 23.5 ± 11.4 | 186 ± 89 |  |  |  |  | C[C@@H]1CN(c2ccc(-c3cc(C(=O)NCCOCCOCCOCCOCCNC(=O)/C=C/c4[nH]cc(C(=O)N[C@@H](CC(N)=O)c5ccc(F)c(Cl)c5)c4-c4ccc(Cl)cc4F)ccc3F)cc2NC(=O)c2c[nH]c(=O)cc2C(F)(F)F)C[C@H](C)N1C [PROTAC 1] | 32 |  | 
6 | moderate WDR5 degradation | 38 ± 0.6 | 106 | 0.008 |  | 621 | 41.2 ± 2.5 | 21.9 ± 11.1 | 135 ± 6 |  |  |  |  | C[C@@H]1CN(c2ccc(-c3cc(C(=O)NCCOCCOCCOCCOCCNC(=O)Cn4cc(-c5[nH]cc(C(=O)N[C@@H](CC(N)=O)c6ccc(F)c(Cl)c6)c5-c5ccc(Cl)cc5F)cn4)ccc3F)cc2NC(=O)c2c[nH]c(=O)cc2C(F)(F)F)C[C@H](C)N1C [PROTAC 2] |  |  | 
7 |  |  |  |  |  |  |  |  |  | did not degrade | did not degrade |  |  | C[C@@H]1CN(c2ccc(-c3cc(C(=O)NCCCNC(=O)/C=C/c4[nH]cc(C(=O)N[C@@H](CC(N)=O)c5ccc(F)c(Cl)c5)c4-c4ccc(Cl)cc4F)ccc3F)cc2NC(=O)c2c[nH]c(=O)cc2C(F)(F)F)C[C@H](C)N1C [PROTAC 5] |  |  | 
